Counter-ions that a name gives are not always drawn.
Experiments:
h-NK1 receptors = target: T1, h-NK1 receptors (Homo sapiens, UniProt P25103); assay: Evaluation of NK1 antagonist transport efficiency to the central nervous system using a h-NK1 receptor binding assay (brain extract after i.v. dosing of rats); settings: 5 min; compound extracted from brain of male SD rats 5 min after i.v. injection at the dose of 1 mg/kg; CHO cell membranes expressing h-NK1; read-out: inhibition rate of 125I-BH-Substance P binding to h-NK1 receptors
T1 construct: expressed in transfected cells; host or cells: CHO cells (permanent expression), crude cell membranes
Method: A. Evaluation of NK1 Antagonist Transport Efficiency to the Cental Nervous System using a h-NK1 Receptor Binding Assay
(1) Administration of Test Compound and Extraction of the Compound from Brain
Male SD rats were given an i.v. injection of a solution containing a test compound (1 mg/kg). 5 Min later the animals were anesthetized by ether, bled and perfused through the aorta ascendens with 20 ml of saline. The brain was rapidly removed, weighed and homogenized in 4 vol. ice-cold distilled water by using Polytoron (KINEMATICA). To extract the test compound, 500 μl of the homogenate, 100 μl of methanol, 500 μl of 0.1 N NaOH and 4 ml of ethyl acetate were mixed by shaking for 10 min at room temperature. The organic phase (2.5 ml) was recovered by centrifugation at 3,000 rpm for 10 min, dried and dissolved in dimethyl sulfoxide.
(2) h-NK1 Receptor Binding Assay
(a) Crude CHO Cell Membrane Preparation
CHO cells permanently expressing h-NK1 receptors were harvested and homogenized with a Dounce homogenizer at 4° C. in a buffer (0.25 M sucrose, 25 mM Tris-HCl (pH 7.4), 10 mM MgCl2, 1 mM EDTA, 5 μg/ml p-APMSF). The homogenate was centrifuged (500×g, 10 min), and the pellet was resuspended in the same buffer, homogenized, and centrifuged. The two supernatants were combined and centrifuged (100,000×g, 1 hour). The crude cell membranes thus isolated were resuspended in a buffer (25 mM Tris-HCl (pH 7.4), 10 mM MgCl2, 1 mM. EDTA, 5 μg/ml p-APMSF) and stored at −80° C. until use.
(b) ^125I-BH-Substance P Binding to the Prepared Membrane
Cell membranes (6 μg/ml) were incubated with ^125I-BH-Substance P (0.1 nM) with or without the extracted compounds in 0.25 ml of a medium (50 mM Tris-HCl (pH 7.4), 5 mM MnCl2, 20 μg/ml chymostatin, 40 μg/ml bacitracin, 4 μg/ml leupeptin, 5 μg/ml p-APMSF, 200 μg/ml BSA) at 22° C. for 90 min. At the end of the incubation period, the contents were quickly filtered through a Blue Mat 11740 filter (pretreated with 0.1% polyethylenimine for 3 hours prior to use) by using SKATRON Cell Harvester. The filter was then washed with a washing buffer (50 mM Tris-HCl (pH 7.4), 5 mM MnCl2). The radioactivity was counted by using an auto gamma counter (Packard RIASTAR 5420A). All data presented are specific binding defined as that displaceable by 3 μM unlabeled Substance P.

T1 sequence (P25103 whole entry): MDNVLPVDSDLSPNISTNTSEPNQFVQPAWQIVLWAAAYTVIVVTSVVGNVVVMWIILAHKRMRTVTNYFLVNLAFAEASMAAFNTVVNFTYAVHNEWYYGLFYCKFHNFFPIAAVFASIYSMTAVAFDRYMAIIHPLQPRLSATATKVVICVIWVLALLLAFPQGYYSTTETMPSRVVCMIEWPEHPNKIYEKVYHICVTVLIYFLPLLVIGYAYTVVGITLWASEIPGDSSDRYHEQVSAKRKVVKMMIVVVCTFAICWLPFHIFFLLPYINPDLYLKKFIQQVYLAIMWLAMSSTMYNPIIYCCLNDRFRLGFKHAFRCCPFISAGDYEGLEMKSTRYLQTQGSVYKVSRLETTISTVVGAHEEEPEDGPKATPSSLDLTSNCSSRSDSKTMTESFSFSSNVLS

inhibition at 1 mg/kg (h-NK1 receptors) [%] | melting point | Structure (SMILES)
> 80 | 157 to 200 °C | Cc1ccc(C[C@@H]2CN(CC#CCN3CCOCC3(C)C)CCN2C(=O)c2cc([N+](=O)[O-])cc(C(F)(F)F)c2)cc1C.Cl.Cl [90-(6), (2R)-2-(3,4-Dimethylbenzyl)-4-[4-(3,3-dimethylmorpholino)-2-butynyl]-1-[3-nitro-5-(trifluoromethyl)benzoyl]piperazine dihydrochloride]
> 80 | 165 to 177 °C | Cl.Cl.O=C(c1cc(C(F)(F)F)cc(C(F)(F)F)c1)N1CCN(C/C=C\c2cccnc2)C[C@H]1Cc1c[nH]c2ccccc12 [Example 5-(2), (2R)-1-[3,5-Bis(trifluoromethyl)benzoyl]-2-[(1H-indol-3-yl)methyl]-4-[(Z)-3-(3-pyridyl)-2-propenyl]piperazine dihydrochloride]
> 80 | 145 to 155 °C | COCC1CN(CCCN2CCN(C(=O)c3cc(C(F)(F)F)cc(C(F)(F)F)c3)[C@H](Cc3ccc(C)c(C)c3)C2)CCO1.Cl (stereo partly drawn) [80-(7), (2R)-1-[3,5-Bis(trifluoromethyl)benzoyl]-2-(3,4-dimethylbenzyl)-4-[3-(2-methoxymethylmorpholino)propyl]piperazine hydrochloride]
> 80 | 195 to 205 °C | CNc1cc(C(=O)N2CCN(CC#CCN3CCOCC3(C)C)C[C@H]2Cc2ccc(C)c(C)c2)cc(C(F)(F)F)c1.Cl.Cl [90-(4), (2R)-2-(3,4-Dimethylbenzyl)-4-[4-(3,3-dimethylmorpholino)-2-butynyl]-1-[3-(methylamino)-5-(trifluoromethyl)benzoyl]piperazine dihydrochloride]
> 80 | 71 °C (dec.) | Cc1ccc(C[C@@H]2CN(CCCNN3CCOCC3)CCN2C(=O)c2cc(Cl)cc(Cl)c2)cc1C.Cl.Cl [Example 17, (2R)-1-(3,5-dichlorobenzoyl)-2-(3,4-dimethylbenzyl)-4-(N-morpholino-3-aminopropyl)piperazine dihydrochloride]
> 80 | 210 to 225 °C | CN(C)c1cc(C(=O)N2CCN(CC#CCN3CCOCC3(C)C)C[C@H]2Cc2c[nH]c3ccccc23)cc(C(F)(F)F)c1.Cl.Cl [90-(2), (2R)-1-[3-(Dimethylamino)-5-(trifluoromethyl)benzoyl]-4-[4-(3,3-dimethylmorpholino)-2-butynyl]-2-[(1H-indol-3-yl)methyl]piperazine dihydrochloride]
> 80 | 225 to 232 °C | Cc1ccc(C[C@@H]2CN(C/C=C/[C@@H]3COCCN3)CCN2C(=O)c2cc(C(F)(F)F)cc(C(F)(F)F)c2)cc1C.Cl.Cl [Example 45, (2R)-1-[3,5-bis(trifluoromethyl)benzoyl]-2-(3,4-dimethylbenzyl)-4-[(2E)-3-[(3R)-3-morpholinyl]-2-propenyl]piperazine dihydrochloride]
> 80 | 145 to 155 °C | Cc1ccc(C[C@@H]2CN(CCN3CCOC[C@@H]3CF)CCN2C(=O)c2cc(C(F)(F)F)cc(C(F)(F)F)c2)cc1C.Cl.Cl [81-(1), (2R)-1-[3,5-Bis(trifluoromethyl)benzoyl]-2-(3,4-dimethylbenzyl)-4-[2-((3R)-3-fluoromethylmorpholino)ethyl]piperazine dihydrochloride]
> 80 | 60 to 70 °C | COCC1(C)COCCN1CCN1CCN(C(=O)c2cc(C(F)(F)F)cc(C(F)(F)F)c2)[C@H](Cc2ccc(C)c(C)c2)C1.Cl.Cl (stereo partly drawn) [81-(2), (2R)-1-[3,5-Bis(trifluoromethyl)benzoyl]-2-(3,4-dimethylbenzyl)-4-[2-(3-methoxymethyl-3-methylmorpholino)ethyl]piperazine dihydrochloride]
> 80 | 90 to 100 °C | COC[C@H]1COCCN1CCN1CCN(C(=O)c2cc(C(F)(F)F)cc(C(F)(F)F)c2)[C@H](Cc2ccc(C)c(C)c2)C1.Cl.Cl [80-(4), (2R)-1-[3,5-Bis(trifluoromethyl)benzoyl]-2-(3,4-dimethylbenzyl)-4-[2-((3S)-3-methoxymethylmorpholino)ethyl]piperazine dihydrochloride]
> 80 |  | COc1ccc(CC2CN(CC#CCN3CCOCC3(C)C)CCN2C(=O)c2cc(C(F)(F)F)cc(C(F)(F)F)c2)cc1C (stereo not drawn) [85-(3), 1-[3,5-Bis(trifluoromethyl)benzoyl]-4-[4-(3,3-dimethylmorpholino)-2-butynyl]-2-(4-methoxy-3-methylbenzyl)piperazine dihydrochloride]

The next lines start with the compound.

Structure (SMILES) | inhibition at 1 mg/kg (h-NK1 receptors) [%] | melting point
Cc1ccc(C[C@@H]2CN(CCCN3CCOCC3(C)C)CCN2C(=O)c2cc(C(F)(F)F)cc(C(F)(F)F)c2)cc1C.Cl.Cl [78-(4), (2R)-1-[3,5-Bis(trifluoromethyl)benzoyl]-2-(3,4-dimethylbenzyl)-4-[3-(3,3-dimethylmorpholino)propyl]piperazine dihydrochloride] | > 80 | 197 °C
Cc1ccc(C[C@@H]2CN(C/C=C/CN3CCOCC3)CCN2C(=O)c2cc(Cl)cc(Cl)c2)cc1C.Cl.Cl [16-(2), (2R)-1-(3,5-Dichlorobenzoyl)-2-(3,4-dimethylbenzyl)-4-[(E)-4-morpholino-2-butenyl]piperazine dihydrochloride] | > 80 | > 230 °C
COC[C@H]1CN(CC#CCN2CCN(C(=O)c3cc(C(F)(F)F)cc(C(F)(F)F)c3)[C@H](Cc3ccc(C)c(C)c3)C2)CCO1.Cl.Cl [71-(6), (2R)-1-[3,5-Bis(trifluoromethyl)benzoyl]-2-(3,4-dimethylbenzyl)-4-[4-((2R)-2-methoxymethylmorpholino)-2-butynyl]piperazine dihydrochloride] | > 80 | 80 to 90 °C
Cl.Cl.O=C(c1cc(C(F)(F)F)cc(C(F)(F)F)c1)N1CCN(C/C=C/c2cccnc2)C[C@H]1Cc1c[nH]c2ccccc12 [56-(2), (2R)-1-[3,5-Bis(trifluoromethyl)benzoyl]-2-[(1H-indol-3-yl)methyl]-4-[(2E)-3-(3-pyridyl)-2-propenyl]piperazine dihydrochloride] | > 80 | 195 to 203 °C
COC[C@@H]1CN(CC#CCN2CCN(C(=O)c3cc(C(F)(F)F)cc(C(F)(F)F)c3)[C@H](Cc3ccc(C)c(C)c3)C2)CCO1.Cl.Cl [71-(5), (2R)-1-[3,5-Bis(trifluoromethyl)benzoyl]-2-(3,4-dimethylbenzyl)-4-[4-((2S)-2-methoxymethylmorpholino)-2-butynyl]piperazine dihydrochloride] | > 80 | 85 to 95 °C
Cc1ccc(C[C@@H]2CN(CCN3CCOC[C@@H]3CO)CCN2C(=O)c2cc(C(F)(F)F)cc(C(F)(F)F)c2)cc1C.Cl.Cl [80-(2), (2R)-1-[3,5-Bis(trifluoromethyl)benzoyl]-2-(3,4-dimethylbenzyl)-4-[2-((3S)-3-hydroxymethylmorpholino)ethyl]piperazine dihydrochloride] | > 80 | 150 to 160 °C
COC[C@H]1COCCN1C/C=C/CN1CCN(C(=O)c2cc(C(F)(F)F)cc(C(F)(F)F)c2)[C@H](Cc2ccc(C)c(C)c2)C1.Cl.Cl [73-(3), (2R)-1-[3,5-Bis(trifluoromethyl)benzoyl]-2-(3,4-dimethylbenzyl)-4-[(E)-4-((3S)-3-methoxymethylmorpholino)-2-butenyl]piperazine dihydrochloride] | > 80 | 130 to 140 °C
COCC1(C)COCCN1CC#CCN1CCN(C(=O)c2cc(C(F)(F)F)cc(C(F)(F)F)c2)[C@H](Cc2ccc(C)c(C)c2)C1.Cl.Cl (stereo partly drawn) [71-(1), (2R)-1-[3,5-Bis(trifluoromethyl)benzoyl]-2-(3,4-dimethylbenzyl)-4-[4-(3-methoxymethyl-3-methylmorpholino)-2-butynyl]piperazine dihydrochloride] | > 80 | 155 to 160 °C
Cc1ccc(C[C@@H]2CN(C/C=C/c3cccnc3)CCN2C(=O)c2cc(C(F)(F)F)cc(C(F)(F)F)c2)cc1C.Cl.Cl [6-(1), (2R)-1-[3,5-Bis(trifluoromethyl)benzoyl]-2-(3,4-dimethylbenzyl)-4-[(E)-3-(3-pyridyl)-2-propenyl]piperazine dihydrochloride] | > 80 | 170 to 174 °C

From US6924278B2, “Aroyl-piperazine derivatives, their preparation and their use as tachykinin antagonists” (Fujisawa Pharmaceutical Co., Ltd., priority 1997, dated 2005)
